Earlier results, collected in US20230058142A1, “LIQUID PHARMACEUTICAL COMPOSITION COMPRISING CYTISINE” (priority 2019, published 2023).

Target: nicotinic α4β2 receptors (Homo sapiens, UniProt P17787+P43681)
Settings: read-out: Ki, affinity for nicotinic α4β2 receptors

nicotinic α4β2 receptors, sequence (P43681 29-627 limits assumed): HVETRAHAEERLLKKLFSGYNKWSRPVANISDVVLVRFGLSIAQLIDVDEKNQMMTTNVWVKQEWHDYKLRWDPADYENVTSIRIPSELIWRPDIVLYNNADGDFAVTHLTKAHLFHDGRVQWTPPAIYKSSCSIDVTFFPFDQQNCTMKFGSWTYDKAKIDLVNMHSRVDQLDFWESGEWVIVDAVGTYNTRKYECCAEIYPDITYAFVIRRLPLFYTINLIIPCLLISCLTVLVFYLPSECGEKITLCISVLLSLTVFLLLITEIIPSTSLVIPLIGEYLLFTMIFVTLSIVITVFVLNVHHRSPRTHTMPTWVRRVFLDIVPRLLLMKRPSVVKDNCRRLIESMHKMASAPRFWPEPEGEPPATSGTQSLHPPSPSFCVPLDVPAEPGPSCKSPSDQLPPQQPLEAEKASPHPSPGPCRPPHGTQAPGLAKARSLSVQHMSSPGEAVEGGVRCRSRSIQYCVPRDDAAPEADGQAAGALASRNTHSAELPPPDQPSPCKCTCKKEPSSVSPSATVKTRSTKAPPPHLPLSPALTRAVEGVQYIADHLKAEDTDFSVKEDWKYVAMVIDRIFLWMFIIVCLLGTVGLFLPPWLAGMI
nicotinic α4β2 receptors, sequence (P17787 26-502): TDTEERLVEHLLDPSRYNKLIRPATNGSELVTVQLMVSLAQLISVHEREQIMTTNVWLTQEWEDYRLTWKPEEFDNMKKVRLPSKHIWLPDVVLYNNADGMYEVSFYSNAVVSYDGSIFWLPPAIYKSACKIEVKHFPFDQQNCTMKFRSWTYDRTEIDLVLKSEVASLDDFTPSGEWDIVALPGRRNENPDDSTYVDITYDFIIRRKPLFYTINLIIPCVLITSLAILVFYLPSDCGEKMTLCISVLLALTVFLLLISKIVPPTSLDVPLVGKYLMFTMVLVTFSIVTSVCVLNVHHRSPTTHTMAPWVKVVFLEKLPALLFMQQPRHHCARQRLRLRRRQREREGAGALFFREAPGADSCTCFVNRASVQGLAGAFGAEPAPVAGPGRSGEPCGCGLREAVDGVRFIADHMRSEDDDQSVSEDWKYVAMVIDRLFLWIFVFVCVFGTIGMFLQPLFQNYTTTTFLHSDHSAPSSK

O=c1cccc2n1C[C@@H]1CNC[C@H]2C1 [Cytisine, (1R-cis)-1,2,3,4,5,6-hexahydro-1,5-methano-8H-pyrido[1,2-a][1,5]diazocin-8-one]
Ki: 450 nM
